Assay results from patent US12686673B2 (Blueprint Medicines Corporation, priority 2020, dated 2026).
Structures can show the parent of a compound that is named as a salt. Where two headings read alike, the source gives them in different places.

What was measured:
Format in all cases: cell-based
[1] = target: EGFR(D770_N771insSVD) expressing Ba/F3 stable cell line (Homo sapiens, UniProt P00533, DUP768-770, cells depend on it); test: Cellular proliferation (Alamar Blue) assay, EGFR D770_N771insSVD Ba/F3; conditions: 72 hr, read-out: D770 IC50
Method in brief: (§1)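 Each stable Ba/F3 line, cultured in RPMI with 10% FBS at 15,000 cells per well, received a threefold compound series (final top 10 μM, bottom 0.0005 μM) for 72 hr at 37 degree Celsius, then Alamar Blue for 3 h.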

[2] = target: EGFR (A767_dupASV) expressing Ba/F3 stable cell line (Homo sapiens, UniProt P00533, DUP767-769, cells depend on it); test: Cellular proliferation (Alamar Blue) assay, EGFR A767_dupASV Ba/F3; conditions: 72 hr, read-out: A767 IC50
Method in brief: as §1

[3] = tested on: A431 cells; test: Cellular proliferation (Alamar Blue) assay, A431; conditions: Homo sapiens
[4] = target: EGFR (H773insNPH) expressing Ba/F3 stable cell line (Homo sapiens, UniProt P00533, DUP771-773, cells depend on it); test: Cellular proliferation (Alamar Blue) assay, EGFR H773insNPH Ba/F3; conditions: 72 hr, read-out: NPH IC50
Method in brief: as §1

[5] = target: HER2 (A775_G776insYVMA) expressing Ba/F3 stable cell line (Homo sapiens, UniProt P04626, DUP772-775, cells depend on it); test: Cellular proliferation (Alamar Blue) assay, HER2 A775_G776insYVMA Ba/F3; conditions: 72 hr, read-out: YVMA IC50
Method in brief: as §1

[6] = A-431, A431 cells, Alamar Blue, 72 hr, read-out: A431 IC50
[7] = A-431, A431 cells, 72 hr, Alamar Blue, read-out: A431 IC50

Chain of EGFR (H773insNPH) expressing Ba/F3 stable cell line (P00533 with tags, fused parts or gaps DUP771-773): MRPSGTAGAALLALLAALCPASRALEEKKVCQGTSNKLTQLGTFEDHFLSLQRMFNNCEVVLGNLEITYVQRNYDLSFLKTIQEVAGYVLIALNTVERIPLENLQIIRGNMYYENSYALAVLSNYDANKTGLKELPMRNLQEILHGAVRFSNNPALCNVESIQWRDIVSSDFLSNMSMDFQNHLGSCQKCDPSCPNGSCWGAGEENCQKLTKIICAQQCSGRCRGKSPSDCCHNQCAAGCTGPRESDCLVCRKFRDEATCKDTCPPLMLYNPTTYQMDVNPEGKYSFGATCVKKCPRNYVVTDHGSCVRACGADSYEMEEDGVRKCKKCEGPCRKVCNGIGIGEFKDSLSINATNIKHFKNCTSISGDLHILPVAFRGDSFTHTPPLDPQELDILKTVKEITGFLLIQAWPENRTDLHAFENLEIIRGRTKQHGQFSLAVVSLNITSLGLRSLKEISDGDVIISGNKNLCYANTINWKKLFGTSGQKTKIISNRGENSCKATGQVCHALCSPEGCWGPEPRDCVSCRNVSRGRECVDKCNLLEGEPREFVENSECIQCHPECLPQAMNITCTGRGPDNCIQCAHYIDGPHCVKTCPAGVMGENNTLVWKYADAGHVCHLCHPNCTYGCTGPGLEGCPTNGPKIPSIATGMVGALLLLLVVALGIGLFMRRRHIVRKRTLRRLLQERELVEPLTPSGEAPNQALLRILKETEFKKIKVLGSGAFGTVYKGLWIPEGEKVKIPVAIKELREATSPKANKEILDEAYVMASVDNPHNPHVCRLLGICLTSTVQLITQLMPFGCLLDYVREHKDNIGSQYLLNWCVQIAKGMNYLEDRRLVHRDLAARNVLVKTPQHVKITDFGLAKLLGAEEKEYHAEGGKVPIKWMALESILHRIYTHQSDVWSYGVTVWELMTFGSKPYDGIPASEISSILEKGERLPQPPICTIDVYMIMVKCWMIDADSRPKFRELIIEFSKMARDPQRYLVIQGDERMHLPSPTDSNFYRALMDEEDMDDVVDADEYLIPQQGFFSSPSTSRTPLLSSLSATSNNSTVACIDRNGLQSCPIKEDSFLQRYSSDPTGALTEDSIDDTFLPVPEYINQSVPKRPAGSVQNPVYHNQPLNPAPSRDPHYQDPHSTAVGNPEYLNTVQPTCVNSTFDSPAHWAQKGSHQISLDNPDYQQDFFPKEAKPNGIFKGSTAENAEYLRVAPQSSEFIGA
Chain of EGFR (A767_dupASV) expressing Ba/F3 stable cell line (P00533 with tags, fused parts or gaps DUP767-769): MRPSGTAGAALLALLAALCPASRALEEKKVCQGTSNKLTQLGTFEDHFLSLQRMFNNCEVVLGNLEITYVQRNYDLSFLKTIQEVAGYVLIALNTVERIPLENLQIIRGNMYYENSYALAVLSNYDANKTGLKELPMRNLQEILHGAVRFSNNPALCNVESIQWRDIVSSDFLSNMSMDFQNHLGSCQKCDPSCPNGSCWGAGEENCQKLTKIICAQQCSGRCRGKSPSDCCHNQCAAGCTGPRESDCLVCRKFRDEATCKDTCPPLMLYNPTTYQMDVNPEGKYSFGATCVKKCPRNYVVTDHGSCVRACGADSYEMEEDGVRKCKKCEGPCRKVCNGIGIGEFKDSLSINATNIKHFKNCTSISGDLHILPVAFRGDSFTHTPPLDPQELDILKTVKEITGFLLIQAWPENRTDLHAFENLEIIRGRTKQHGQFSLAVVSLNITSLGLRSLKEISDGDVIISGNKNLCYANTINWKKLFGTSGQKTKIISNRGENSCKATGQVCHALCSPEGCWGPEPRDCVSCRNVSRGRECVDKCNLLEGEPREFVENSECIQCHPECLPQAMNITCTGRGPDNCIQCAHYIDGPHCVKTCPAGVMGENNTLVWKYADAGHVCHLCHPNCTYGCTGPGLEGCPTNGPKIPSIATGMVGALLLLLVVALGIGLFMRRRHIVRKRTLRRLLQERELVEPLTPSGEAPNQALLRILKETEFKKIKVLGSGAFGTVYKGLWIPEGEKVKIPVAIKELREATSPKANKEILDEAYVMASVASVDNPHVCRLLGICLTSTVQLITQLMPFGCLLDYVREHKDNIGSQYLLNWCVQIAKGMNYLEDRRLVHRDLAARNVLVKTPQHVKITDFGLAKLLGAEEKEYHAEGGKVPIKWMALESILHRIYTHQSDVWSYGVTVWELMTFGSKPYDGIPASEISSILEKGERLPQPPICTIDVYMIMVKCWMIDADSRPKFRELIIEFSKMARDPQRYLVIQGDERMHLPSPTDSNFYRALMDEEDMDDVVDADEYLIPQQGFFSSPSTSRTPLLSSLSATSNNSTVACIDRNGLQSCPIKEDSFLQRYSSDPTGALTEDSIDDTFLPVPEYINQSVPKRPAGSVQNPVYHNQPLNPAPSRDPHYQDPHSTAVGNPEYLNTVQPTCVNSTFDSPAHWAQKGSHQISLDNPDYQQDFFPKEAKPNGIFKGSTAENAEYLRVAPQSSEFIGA
Chain of HER2 (A775_G776insYVMA) expressing Ba/F3 stable cell line (P04626 with tags, fused parts or gaps DUP772-775): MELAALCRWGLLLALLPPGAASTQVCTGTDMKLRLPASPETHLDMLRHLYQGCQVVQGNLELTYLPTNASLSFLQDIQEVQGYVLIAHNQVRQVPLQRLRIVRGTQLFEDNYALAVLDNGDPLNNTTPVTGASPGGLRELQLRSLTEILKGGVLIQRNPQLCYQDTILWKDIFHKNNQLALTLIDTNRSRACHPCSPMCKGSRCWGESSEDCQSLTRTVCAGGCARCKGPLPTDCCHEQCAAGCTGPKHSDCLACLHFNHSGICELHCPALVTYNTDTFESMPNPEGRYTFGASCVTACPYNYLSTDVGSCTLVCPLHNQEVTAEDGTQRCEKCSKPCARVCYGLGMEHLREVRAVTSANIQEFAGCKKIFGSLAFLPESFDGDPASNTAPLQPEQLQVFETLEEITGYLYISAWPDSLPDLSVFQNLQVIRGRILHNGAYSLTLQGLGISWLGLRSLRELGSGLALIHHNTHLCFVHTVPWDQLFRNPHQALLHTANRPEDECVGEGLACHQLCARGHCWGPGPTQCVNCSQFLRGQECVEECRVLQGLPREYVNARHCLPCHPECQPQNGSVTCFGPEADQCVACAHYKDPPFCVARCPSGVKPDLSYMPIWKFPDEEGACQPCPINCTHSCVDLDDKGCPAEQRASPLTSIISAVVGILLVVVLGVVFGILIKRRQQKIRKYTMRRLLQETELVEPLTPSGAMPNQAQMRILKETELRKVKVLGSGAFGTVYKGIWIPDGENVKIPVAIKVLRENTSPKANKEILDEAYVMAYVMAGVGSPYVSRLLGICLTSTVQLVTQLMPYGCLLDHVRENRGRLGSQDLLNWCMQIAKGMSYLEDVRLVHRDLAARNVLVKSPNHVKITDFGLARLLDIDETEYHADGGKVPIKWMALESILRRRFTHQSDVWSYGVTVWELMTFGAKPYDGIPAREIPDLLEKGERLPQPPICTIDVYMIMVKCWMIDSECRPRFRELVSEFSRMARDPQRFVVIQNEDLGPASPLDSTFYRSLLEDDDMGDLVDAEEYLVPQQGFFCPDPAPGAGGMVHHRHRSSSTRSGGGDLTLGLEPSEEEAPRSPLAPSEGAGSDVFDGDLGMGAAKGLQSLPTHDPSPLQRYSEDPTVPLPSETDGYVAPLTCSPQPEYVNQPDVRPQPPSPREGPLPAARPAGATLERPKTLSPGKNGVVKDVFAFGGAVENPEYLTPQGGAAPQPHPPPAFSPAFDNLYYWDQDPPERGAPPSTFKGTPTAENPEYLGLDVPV
Chain of EGFR(D770_N771insSVD) expressing Ba/F3 stable cell line (P00533 with tags, fused parts or gaps DUP768-770): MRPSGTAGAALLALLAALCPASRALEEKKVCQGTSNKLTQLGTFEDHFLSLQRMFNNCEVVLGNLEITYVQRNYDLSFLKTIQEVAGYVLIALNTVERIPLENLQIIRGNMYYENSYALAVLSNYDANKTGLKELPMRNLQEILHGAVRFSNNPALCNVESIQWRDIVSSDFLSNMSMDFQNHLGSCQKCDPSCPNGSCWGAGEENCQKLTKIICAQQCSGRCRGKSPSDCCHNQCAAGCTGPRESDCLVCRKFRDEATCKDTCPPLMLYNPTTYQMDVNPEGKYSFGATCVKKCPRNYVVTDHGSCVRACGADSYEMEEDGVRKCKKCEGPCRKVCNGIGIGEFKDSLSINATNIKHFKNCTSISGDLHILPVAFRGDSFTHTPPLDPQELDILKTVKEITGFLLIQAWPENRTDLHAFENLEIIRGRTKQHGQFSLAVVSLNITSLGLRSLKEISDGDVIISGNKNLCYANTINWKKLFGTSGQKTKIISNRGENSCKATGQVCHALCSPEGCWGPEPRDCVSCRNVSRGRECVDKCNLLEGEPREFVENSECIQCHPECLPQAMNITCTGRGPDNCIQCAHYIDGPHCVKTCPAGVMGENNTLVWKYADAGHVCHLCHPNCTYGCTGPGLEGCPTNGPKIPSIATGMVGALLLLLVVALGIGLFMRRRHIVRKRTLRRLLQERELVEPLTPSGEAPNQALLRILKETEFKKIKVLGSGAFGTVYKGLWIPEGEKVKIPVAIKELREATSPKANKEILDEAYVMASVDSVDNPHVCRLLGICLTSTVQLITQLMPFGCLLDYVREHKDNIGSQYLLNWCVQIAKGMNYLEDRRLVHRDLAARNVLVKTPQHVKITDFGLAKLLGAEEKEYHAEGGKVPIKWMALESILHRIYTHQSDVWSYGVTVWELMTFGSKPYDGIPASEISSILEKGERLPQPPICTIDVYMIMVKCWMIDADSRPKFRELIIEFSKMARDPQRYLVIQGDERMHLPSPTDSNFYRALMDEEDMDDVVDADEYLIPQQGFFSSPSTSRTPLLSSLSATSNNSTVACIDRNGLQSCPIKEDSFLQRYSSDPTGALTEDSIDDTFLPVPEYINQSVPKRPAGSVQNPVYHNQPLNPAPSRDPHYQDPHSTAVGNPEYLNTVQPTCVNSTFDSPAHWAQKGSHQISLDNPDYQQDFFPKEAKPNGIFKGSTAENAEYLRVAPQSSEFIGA

| Compound | GI50 [1] [nM] | GI50 [2] [nM] | IC50 [3, 6] [nM] | GI50 [4] [nM] | GI50 [5] [nM] | IC50 ([3]; A-431, 72 h, read-out: A431 IC50 (nM)) [nM] | IC50 [3, 7] [nM] |
| --- | --- | --- | --- | --- | --- | --- | --- |
| C=CC(=O)Nc1ccc(F)c(Nc2nc(Nc3cn(C)nc3Cl)ncc2-c2ccc(C(F)(F)F)cc2)c1 [Compound 112, N-(3-((2-((3-chloro-1-methyl-1H-pyrazol-4-yl)amino)-5-(4-(trifluoromethyl)phenyl)pyrimidin-4-yl)amino)-4-fluorophenyl)acrylamide trifluoroacetate] | 93 | 80 | 88 | 138 | 288 |  |  |
| C=CC(=O)Nc1ccc(F)c(Nc2nc(Nc3cnn(C)c3)ncc2-c2cccnc2)c1 [Compound 84, N-(4-fluoro-3-((2-((1-methyl-1H-pyrazol-4-yl)amino)-5-(pyridin-3-yl)pyrimidin-4-yl)amino)phenyl)acrylamide] | 64 | 83 |  | 50 | 119 | 191 |  |
| C=CC(=O)Nc1ccc(F)c(Nc2nc(Nc3cnn(C)c3)ncc2-c2ccc(C(F)F)nc2)c1 [Compound 106, N-(3-((5-(6-(difluoromethyl)pyridin-3-yl)-2-((1-methyl-1H-pyrazol-4-yl)amino)pyrimidin-4-yl)amino)-4-fluorophenyl)acrylamide] | 16 | 35 | 94 | 25 | 38 |  |  |
| C=CC(=O)Nc1ccc(F)c(Nc2nc(Nc3cnn(C)c3)ncc2-c2cccc(F)c2)c1 [Compound 88, N-(4-fluoro-3-((5-(3-fluorophenyl)-2-((1-methyl-1H-pyrazol-4-yl)amino)pyrimidin-4-yl)amino)phenyl)acrylamide] | 35 | 48 | 929 | 49 | 198 |  |  |
| C=CC(=O)Nc1cccc(Oc2nc(Nc3cnn(C)c3)ncc2-c2ccc(C(F)F)nc2)c1 [Compound 187, N-(3-((5-(6-(difluoromethyl)pyridin-3-yl)-2-((1-methyl-1H-pyrazol-4-yl)amino)pyrimidin-4-yl)oxy)phenyl)acrylamide] | 40 | 61 | 281 | 99 | 226 |  |  |
| C=CC(=O)Nc1ccc(F)c(Nc2nc(Nc3cnn(C)c3)ncc2-c2cncc(C)c2)c1 [Compound 67, N-(4-fluoro-3-((2-((1-methyl-1H-pyrazol-4-yl)amino)-5-(5-methylpyridin-3-yl)pyrimidin-4-yl)amino)phenyl)acrylamide] | 30 | 36 | 120 | 41 | 26 |  |  |
| C=CC(=O)Nc1cccc(Nc2nc(Nc3cnn(C)c3)ncc2-c2ccc(OC(F)F)cc2)c1 [Compound 142, N-(3-((5-(4-(difluoromethoxy)phenyl)-2-((1-methyl-1H-pyrazol-4-yl)amino)pyrimidin-4-yl)amino)phenyl)acrylamide trifluoroacetate] | 16 | 34 | 169 | 24 | 50 |  |  |
| C=CC(=O)Nc1ccc(F)c(Nc2nc(Nc3cnn(C)c3)ncc2-c2cncs2)c1 [Compound 230, N-(4-fluoro-3-((2-((1-methyl-1H-pyrazol-4-yl)amino)-5-(thiazol-5-yl)pyrimidin-4-yl)amino)phenyl)acrylamide] | 63 | 63 |  | 41 | 54 |  | 109 |
| C=CC(=O)Nc1cccc(Oc2nc(Nc3cn(C)nc3Cl)ncc2-c2ccc(C(F)(F)F)cc2)c1 [Compound 233, N-[3-({2-[(3-chloro-1-methyl-1H-pyrazol-4-yl)amino]-5-[4-(trifluoromethyl)phenyl]pyrimidin-4-yl}oxy)phenyl] prop-2-enamide] | 187 | 428 |  | 385 | 537 |  | 262 |
| C=CC(=O)Nc1ccc(F)c(Nc2nc(Nc3cnn(C)c3)ncc2-c2ccccc2F)c1 [Compound 90, N-(4-fluoro-3-((5-(2-fluorophenyl)-2-((1-methyl-1H-pyrazol-4-yl)amino)pyrimidin-4-yl)amino)phenyl)acrylamide] | 103 | 237 | 320 | 103 | 358 |  |  |
| C=CC(=O)Nc1ccc(F)c(Nc2nc(Nc3cnn(CCO)c3)ncc2-c2ccc(C(F)(F)F)cc2)c1 [Compound 78, N-(4-fluoro-3-((2-((1-(2-hydroxyethyl)-1H-pyrazol-4-yl)amino)-5-(4-(trifluoromethyl)phenyl)pyrimidin-4-yl)amino)phenyl)acrylamide] | 84 | 93 | > 10000 | 53 | 266 |  |  |
| C=CC(=O)Nc1ccc(F)c(Nc2nc(Nc3cnn(C)c3)ncc2-c2cncnc2)c1 [Compound 147, N-(4-fluoro-3-((2-((1-methyl-1H-pyrazol-4-yl)amino)-[5,5′-bipyrimidin]-4-yl)amino)phenyl)acrylamide trifluoroacetate] | 105 | 101 | 466 | 68 | 100 |  |  |
| C=CC(=O)Nc1ccc(F)c(Nc2nc(Nc3cnn(CCN(C)C)c3)ncc2-c2ccc(Br)cc2)c1 [Compound 203, N-(3-((5-(4-bromophenyl)-2-((1-(2-(dimethylamino)ethyl)-1H-pyrazol-4-yl)amino)pyrimidin-4-yl)amino)-4-fluorophenyl)acrylamide] | 69 | 100 |  | 107 | 110 |  | 51 |
| C=CC(=O)Nc1cccc(Nc2nc(Nc3cnn(C)c3)ncc2-c2ccc(F)nc2)c1 [Compound 74, N-(3-((5-(6-fluoropyridin-3-yl)-2-((1-methyl-1H-pyrazol-4-yl)amino)pyrimidin-4-yl)amino)phenyl)acrylamide] | 36 | 38 | 236 | 43 | 70 |  |  |
| C=CC(=O)Nc1cccc(Oc2nc(Nc3cnn(C)c3)ncc2-c2ccc(C(F)F)cc2)c1 [Compound 105, N-(3-((5-(4-(difluoromethyl)phenyl)-2-((1-methyl-1H-pyrazol-4-yl)amino)pyrimidin-4-yl)oxy)phenyl)acrylamide] | 37 | 49 | 171 | 75 | 105 |  |  |
| C=CC(=O)Nc1cccc(Oc2nc(Nc3cnn(C)c3)ncc2-c2cncc(F)c2)c1 [Compound 184, N-(3-((5-(5-fluoropyridin-3-yl)-2-((1-methyl-1H-pyrazol-4-yl)amino)pyrimidin-4-yl)oxy)phenyl)acrylamide] | 37 | 27 | 97 | 222 | 60 |  |  |
| C=CC(=O)Nc1ccc(F)c(Nc2nc(Nc3cnn(C)c3)ncc2-c2ccnc(C(F)(F)F)c2)c1 [Compound 83, N-(4-fluoro-3-((2-((1-methyl-1H-pyrazol-4-yl)amino)-5-(2-(trifluoromethyl)pyridin-4-yl)pyrimidin-4-yl)amino)phenyl)acrylamide] | 61 | 88 | 53 | 51 | 255 |  |  |
| C=CC(=O)Nc1cccc(Oc2nc(Nc3cnn(C)c3)ncc2-c2ccc(Cl)nc2)c1 [Compound 185, N-(3-((5-(6-chloropyridin-3-yl)-2-((1-methyl-1H-pyrazol-4-yl)amino)pyrimidin-4-yl)oxy)phenyl)acrylamide] | 40 | 37 | 522 | 97 | 113 |  |  |
| C=CC(=O)Nc1ccc(F)c(Nc2nc(Nc3cnn(C)c3)ncc2-c2ccc(OC(F)(F)F)cc2)c1 [Compound 92, N-(4-fluoro-3-((2-((1-methyl-1H-pyrazol-4-yl)amino)-5-(4-(trifluoromethoxy)phenyl)pyrimidin-4-yl)amino)phenyl)acrylamide] | 102 | 75 | 133 | 89 | 612 |  |  |
| C=CC(=O)Nc1cccc(Oc2nc(Nc3cnn(C)c3)ncc2-c2ccc(C(F)(F)F)nc2)c1 [Compound 108, N-(3-((2-((1-methyl-1H-pyrazol-4-yl)amino)-5-(6-(trifluoromethyl)pyridin-3-yl)pyrimidin-4-yl)oxy)phenyl)acrylamide] | 104 | 56 | 341 | 294 | 300 |  |  |
| C=CC(=O)Nc1ccc(F)c(Nc2nc(Nc3cnn(C)c3)ncc2-c2ccc(Br)cc2)c1 [Compound 75, N-(3-((5-(4-bromophenyl)-2-((1-methyl-1H-pyrazol-4-yl)amino)pyrimidin-4-yl)amino)-4-fluorophenyl)acrylamide trifluoroacetate] | 35 | 74 | 37 | 43 | 100 |  |  |
| C=CC(=O)Nc1ccc(F)c(Nc2nc(Nc3cn(C)nc3F)ncc2-c2ccc(C(F)(F)F)cc2)c1 [Compound 87, N-(4-fluoro-3-((2-((3-fluoro-1-methyl-1H-pyrazol-4-yl)amino)-5-(4-(trifluoromethyl)phenyl)pyrimidin-4-yl)amino)phenyl)acrylamide] | 171 | 239 | 97 | 234 | 413 |  |  |
